{"source": "patent US20160331734A1", "about": "“SUBSTITUTED N-ARYL PYRIDINONES” (AUSPEX PHARMACEUTICALS, INC., priority 2014, published 2016)", "origin": "cited, not measured here", "key": {"[1]": {"conditions": "humans"}}}
{"compound": "Cc1ccc(=O)n(-c2ccccc2)c1", "note": "[Pirfenidone, 5-Methyl-1-phenylpyridin-2(1H)-one]", "values": [{"measurement": "DNA synthesis", "setting": "leiomyoma cells", "result": "inhibits DNA synthesis"}, {"measurement": "DNA synthesis", "setting": "myometrial cells", "result": "inhibits DNA synthesis"}, {"measurement": "half-life", "setting": "[1]", "result": "very short"}]}
